One assay deals with T1, human Y2 receptor (Homo sapiens, UniProt P49146).
T1 construct: KAN-Ts endogenously expressing Y2 receptors were used; endogenous in cells; host or cells: KAN-Ts cells
T1 sequence (P49146 1-381): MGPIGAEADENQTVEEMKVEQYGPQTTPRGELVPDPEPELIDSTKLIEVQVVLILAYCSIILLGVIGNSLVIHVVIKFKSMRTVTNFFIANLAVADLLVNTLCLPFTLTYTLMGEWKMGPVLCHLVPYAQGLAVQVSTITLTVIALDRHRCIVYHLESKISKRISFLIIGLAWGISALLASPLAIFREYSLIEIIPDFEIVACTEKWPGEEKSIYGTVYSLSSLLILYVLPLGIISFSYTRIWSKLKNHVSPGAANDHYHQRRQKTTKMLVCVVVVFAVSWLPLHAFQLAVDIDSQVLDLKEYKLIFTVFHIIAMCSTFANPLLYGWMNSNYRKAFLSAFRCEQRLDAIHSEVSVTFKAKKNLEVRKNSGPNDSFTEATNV
As to the kind of experiment: Neuropeptide Y2 radioligand binding assay, [125I]PYY, KAN-Ts cells. Particulars: KANT-S cells, mean ± S.E.M., read-out: hY2 pKi (converted). Here is the method: (§1) Radioligand binding assays for the human and rat/mouse Y2 receptor were performed as described in Bonaventure, P., D. Nepomuceno, C. Mazur, B. Lord, D. A. Rudolph, J. A. Jablonowski, N. I. Carruthers and T. W. Lovenberg, J Pharmacol Exp Ther. 2004, 308, 1130.
(§2) KAN-Ts endogenously expressing Y2 receptors were used, for the rat and mouse Y2 receptor, membranes from rat or mouse hippocampus were prepared. Membranes were incubated with [^125I]PYY (80 pM) in the presence or absence of test compound for 1 h at rt. The reaction was stopped by filtration through GF/C filter plates pre-soaked in 0.3% polyethylenimine and subsequently washed with Tris-HCl, 50 mM, 5 mM EDTA buffer. Plates were dried for 1 h in a 55° C. oven, scintillation fluid was added and the radioactivity was counted in a Packard TopCount. Specific binding to the NPY receptor subtypes was determined by radioactivity that was bound in the presence of 1 μM NPY.
(§3) Apparent Ki values were calculated as K=IC50/(1+C/KD), where C is concentration of the radioligand and pKi=−log Ki. Data presented below are expressed as mean±S.E.M.

For another assay, the target named is T2, rat Y2 receptor (Rattus norvegicus, UniProt Q9ERC0).
T2 construct: membranes from rat or mouse hippocampus were prepared; from tissue; host or cells: rat hippocampus membranes
T2 sequence (Q9ERC0 1-381): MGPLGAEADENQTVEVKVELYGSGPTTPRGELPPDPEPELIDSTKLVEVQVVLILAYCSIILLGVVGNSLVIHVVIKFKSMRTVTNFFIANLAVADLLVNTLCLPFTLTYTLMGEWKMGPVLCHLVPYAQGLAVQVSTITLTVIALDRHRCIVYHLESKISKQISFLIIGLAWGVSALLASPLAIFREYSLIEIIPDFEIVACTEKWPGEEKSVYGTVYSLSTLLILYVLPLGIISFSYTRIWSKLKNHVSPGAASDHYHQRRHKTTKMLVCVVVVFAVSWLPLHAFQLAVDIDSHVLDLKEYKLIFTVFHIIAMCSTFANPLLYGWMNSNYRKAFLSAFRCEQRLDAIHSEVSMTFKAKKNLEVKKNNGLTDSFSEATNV
Nature of the assay: Neuropeptide Y2 radioligand binding assay, [125I]PYY, rat hippocampus membranes. The settings on record: read-out: rY2 pKi (converted). Here is the method: as §1, §2, §3

Another assay concerns the target T3, hY2 (Homo sapiens, UniProt P49146).
T3 construct: KAN-Ts endogenously expressing Y2 receptors were used; endogenous in cells; host or cells: KAN-Ts cells stably expressing chimeric G proteins
T3 sequence (P49146 1-381): T1 sequence (P49146 1-381)
As to the kind of experiment: Ca2+ mobilization assay (FLIPR) in KAN-Ts cells. The class given is cell-based. The settings on record: KANT-S cells, inhibition of PYY stimulated Ca2+ increase, read-out: hY2 pKB (converted). Here is the method: The assay was performed using the fluorimetric imaging plate reader (FLIPR) format as described in Dautzenberg, F. M., Biochemical Pharmacology 2005, 69, 1493.
KAN-Ts cells stably expressing chimeric G proteins were seeded at a density of 100,000 cells into poly-d-lysine coated 384-well blackwall, clear-bottom microtiter plates (Corning, N.Y.). One day later, the medium was removed and 50 μl loading medium DMEM high glucose, without serum, supplemented with 10 mM HEPES-acid, 0.1% BSA, 5 mM probenecid and 2 μM Fluo-3AM was added. Cells were loaded for 1 h at 37° C., washed twice with 50 μl assay buffer (5 mM HEPES-acid, 140 mM NaCl, 1 mM MgCl2, 5 mM KCl, 10 mM glucose) and then 30 μl assay buffer was added. Cells were further pre-incubated at room temperature before adding agonists or agonists plus antagonists in 20 μl assay buffer and then measured on a T-channel fluorometric imaging plate reader (FLIPR, Molecular Devices, Sunnyvale, Calif.).
Antagonistic potency values were converted to apparent pKB values using a modified Cheng-Prusoff correction. Apparent pKB=−log IC50/1+[conc agonist/EC50]. Data below are expressed as mean±S.E.M.
The in vitro antagonistic properties of the compound of formula (A) were confirmed using Ca^2+ measurement.
(In general: Calcium assays in cells follow changes in intracellular calcium, usually with a dye or a luminescent sensor.)

A further assay concerns the target MTP (Homo sapiens, UniProt P55157). Nature of the assay: MTP assay (triglyceride transfer between vesicles). In kind it is biochemical. Particulars: read-out: MTP pIC50 (converted). The procedure: MTP activity was measured using an assay similar to one described by J. R. Wetterau and D. B. Zilversmit in Chemistry and Physics of Lipids (1985) 38, 205-222.
In order to prepare the donor and acceptor vesicles, the appropriate lipids in chloroform were put into a glass test tube and dried under a stream of nitrogen. A buffer containing 15 mM Tris-HCl (pH 7.5), 1 mM ethylenediamine tetra-acetic acid, 40 mM NaCl, 0.02% NaN3 (assay buffer) was added to the dried lipid. The mixture was vortexed briefly and the lipids were then allowed to hydrate for 20 minutes on ice. Vesicles were then prepared by bath sonication (using a Branson 2200 device) at room temperature for at most 15 minutes. Butylated hydroxytoluene was included in all vesicle preparations at a concentration of 0.1%. The lipid transfer assay mixture contained donor vesicles (40 nmole phosphatidylcholine, 7.5 mole % cardiolipin and 0.25 mole % glycerol tri[1-^14C]-oleate), acceptor vesicles (240 nmol phosphatidylcholine) and 5 mg bovine serum albumin in a total volume of 675 μl in a 1.5 ml microcentrifuge tube. Test compound was added dissolved in dimethylsulfoxide (0.13% final concentration). After 5 minutes of pre-incubation at 37° C., the reaction was started by the addition of MTP in 100 μl of a dialysis buffer. The reaction was stopped by the addition of 400 μl […] (DEAE)-52 cellulose (Sephadex) pre-equilibrated in 15 mM Tris-HCl (pH 7.5), 1 mM ethylenediamine tetra-acetic acid and 0.02% NaN3 (1:1 volume/volume). The mixture was agitated for 4 minutes and centrifuged for 2 minutes at maximum speed in an Eppendorf centrifuge (4° C.) to pellet the DEAE-52-bound donor vesicles. An aliquot of the supernatant containing the acceptor liposomes was counted and the [^14C]-counts were used to calculate the percent triglyceride transfer from donor to acceptor vesicles.
Representative compounds of the present invention were measured for binding against the MTP receptor, as described above, with results as listed in Table 2 below.

The target of assay [1] is T4, Y2 receptor binding sites in rat hippocampus (Rattus norvegicus, UniProt Q9ERC0).
T4 construct: from tissue; host or cells: rat brain sections (hippocampus) after in vivo dosing
T4 sequence (Q9ERC0 1-381): T2 sequence (Q9ERC0 1-381)
Nature of the assay: Ex vivo Y2 receptor occupancy in rats (autoradiography). The settings on record: SC administration (10 mg/kg). Here is the method:
The pharmacokinetic, blood-brain barrier penetration and ex vivo receptor occupancy studies were performed as described in Bonaventure, P., D. Nepomuceno, C. Mazur, B. Lord, D. A. Rudolph, J. A. Jablonowski, N. I. Carruthers and T. W. Lovenberg, J Pharmacol Exp Ther. 2004, 308, 1130.
The compound of formula (A) was formulated in 20% hydroxypropylbetacyclodextrine. Subcutaneous (SC), oral (PO) or intravenous (IV) dosing was followed by blood sampling via cardiac puncture over a time course. Blood samples consisted of 250 μl samples taken from the heart using a 23-gauge needle into 1.5 ml micro-centrifuge tubes. Brains were removed from the animals and bisected down the midsagittal plane. One hemisphere was frozen on dry ice for ex vivo receptor binding autoradiography and the other was homogenized for LC/MS-MS analysis.
Ex vivo receptor binding autoradiography was performed on brain sections. Twenty-micron-thick coronal sections at the level of the […] regions were collected and incubated for 10 min with 100 pM [^125I]PYY in Krebs-Ringer phosphate buffer (KRP) at pH 7.4 supplemented with 0.1% BSA, 0.05% bacitracin, and 1 μM BIBP-3226 for Y1 receptor occlusion. The sections were not washed prior to incubation and were incubated 10 minutes to avoid dissociation. Nonspecific binding was determined using adjacent sections incubated in the presence of 1 μM unlabelled hNPY. At the end of the incubation, sections were washed 4 times (4 minutes each) in ice cold buffer, dipped in deionized water and rapidly dried under a stream of cold air. Sections were exposed to a Fujifilm Imaging Plate (BAS-MS2025) for 12 hours. The Phosphor Imaging Plate was scanned using a Fuji Bio-Imaging Analyzer System (BAS-5000). The digitized computer images generated by the scanner were visualized and quantified using ImageGauge V3.12 software (Fujifilm).

Another assay has as its target T5, mouse Y2 receptor (Mus musculus, UniProt P97295).
T5 construct: membranes from rat or mouse hippocampus were prepared; from tissue; host or cells: mouse hippocampus membranes
T5 sequence (P97295 1-381): T2 sequence (Q9ERC0 1-381) with L4V, L20P, S23P, P25H, V52I, Q163R, V175I, K247R, T266M, L371P
As to the kind of experiment: Neuropeptide Y2 radioligand binding assay, [125I]PYY, mouse hippocampus membranes. Particulars: read-out: mY2 pKi (converted). The procedure:
as §1, §2, §3

Each structure is given as a SMILES string. Substitutions are numbered along the chain they refer to.

MTP, sequence (P55157 19-894, species assumed): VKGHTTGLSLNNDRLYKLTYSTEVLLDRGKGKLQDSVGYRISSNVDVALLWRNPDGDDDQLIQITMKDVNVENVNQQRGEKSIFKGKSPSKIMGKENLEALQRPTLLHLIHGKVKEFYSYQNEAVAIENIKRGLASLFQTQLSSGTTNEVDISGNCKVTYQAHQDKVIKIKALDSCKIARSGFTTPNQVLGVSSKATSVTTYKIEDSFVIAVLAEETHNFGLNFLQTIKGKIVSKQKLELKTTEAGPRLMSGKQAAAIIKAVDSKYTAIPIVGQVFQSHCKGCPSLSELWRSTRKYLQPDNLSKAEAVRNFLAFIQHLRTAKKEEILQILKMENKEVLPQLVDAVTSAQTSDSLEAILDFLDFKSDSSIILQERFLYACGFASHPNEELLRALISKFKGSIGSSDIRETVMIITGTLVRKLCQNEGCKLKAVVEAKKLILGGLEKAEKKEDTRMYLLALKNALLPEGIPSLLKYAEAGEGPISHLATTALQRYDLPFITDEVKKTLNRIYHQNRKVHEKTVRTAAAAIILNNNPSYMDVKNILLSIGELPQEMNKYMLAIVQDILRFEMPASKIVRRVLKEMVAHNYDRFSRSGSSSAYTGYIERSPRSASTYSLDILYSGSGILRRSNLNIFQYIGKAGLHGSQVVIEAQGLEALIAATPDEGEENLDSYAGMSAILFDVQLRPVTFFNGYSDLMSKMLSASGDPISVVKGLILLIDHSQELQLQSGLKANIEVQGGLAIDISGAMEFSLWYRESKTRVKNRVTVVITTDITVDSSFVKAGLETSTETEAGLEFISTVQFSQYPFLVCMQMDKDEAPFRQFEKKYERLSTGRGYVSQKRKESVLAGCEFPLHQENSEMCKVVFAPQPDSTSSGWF
MTP, sequence (P07237 18-508 partner, species assumed): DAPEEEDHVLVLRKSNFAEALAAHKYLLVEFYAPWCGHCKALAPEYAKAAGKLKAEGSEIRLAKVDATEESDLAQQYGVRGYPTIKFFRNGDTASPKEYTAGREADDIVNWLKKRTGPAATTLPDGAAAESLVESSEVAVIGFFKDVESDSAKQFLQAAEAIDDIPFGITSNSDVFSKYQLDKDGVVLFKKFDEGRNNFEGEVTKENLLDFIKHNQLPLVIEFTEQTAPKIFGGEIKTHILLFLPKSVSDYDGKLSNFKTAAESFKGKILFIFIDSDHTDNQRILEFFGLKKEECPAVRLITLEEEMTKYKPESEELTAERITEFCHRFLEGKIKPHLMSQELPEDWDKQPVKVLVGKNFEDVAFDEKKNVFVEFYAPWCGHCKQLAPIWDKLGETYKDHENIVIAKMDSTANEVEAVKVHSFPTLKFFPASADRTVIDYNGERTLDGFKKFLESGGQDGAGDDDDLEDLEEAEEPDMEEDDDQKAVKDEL

In the case of `CCN(CC)C(=O)C(c1ccccc1)N1CCN(c2ccc(NC(=O)c3ccccc3-c3ccccc3)cc2F)CC1` (stereo not shown) [Cmpd (C), Biphenyl-2-carboxylic acid {4-[4-(diethylcarbamoyl-phenyl-methyl)-piperazin-1-yl]-3-fluoro-phenyl}-amide], the Ki at human Y2 receptor was 7.59 nM; at rat Y2 receptor, 25.1 nM. For the same molecule, the Kb at hY2 is 6.31 nM. On MTP, the IC50 was 50.1 nM. Further, the “Y2 receptor occupancy in rat brain” value in assay [1] is listed as “did not show any significant level of Y2 receptor occupancy”.
Turning to `CCN(CC)C(=O)C(c1ccccc1)N1CCN(c2ccc(NC(=O)c3ccccc3-c3cccnc3)cc2F)CC1` (single isomer, unassigned; (-)) [(−)-Cmpd (A), (−)-N-{4-[4-(Diethylcarbamoyl-phenyl-methyl)-piperazin-1-yl]-3-fluoro-phenyl}-2-pyridin-3-yl-benzamide], the values for the Ki on human Y2 receptor, on rat Y2 receptor and on mouse Y2 receptor were 3.16 nM, 12 nM and 7.94 nM, respectively. Further, at hY2, the Kb is 0.794 nM. The IC50 on MTP was 6310 nM.
Regarding `CCNC(=O)C(c1ccccc1)N1CCN(c2ccc(NC(=O)c3ccccc3-c3cccnc3)cc2F)CC1` (racemic) [Cmpd (B), N-{4-[4-(ethylcarbamoyl-phenyl-methyl)-piperazin-1-yl]-3-fluorophenyl}-2-pyridin-3-yl-benzamide], the Ki at human Y2 receptor was 32.4 nM. Further, the Kb on hY2 is 50.1 nM. For the same molecule, the IC50 on MTP is 251 nM. For the same molecule, in assay [1] (rat, read-out: Y2 receptor occupancy in rat brain), the receptor occupancy at 10 mg/kg was roughly 40%.
As for `CCNC(=O)C(c1ccccc1)N1CCN(c2ccc(NC(=O)c3ccccc3-c3cccnc3)cc2F)CC1` (single isomer, unassigned; (+)) [(+)-Cmpd (B), N-{4-[4-(ethylcarbamoyl-phenyl-methyl)-piperazin-1-yl]-3-fluoro-phenyl}-2-pyridin-3-yl-benzamide], on human Y2 receptor, the Ki was 229 nM. Besides, at MTP, the IC50 is 3980 nM.
Regarding `CCNC(=O)C(c1ccccc1)N1CCN(c2ccc(NC(=O)c3ccccc3-c3cccnc3)cc2F)CC1` (single isomer, unassigned; (-)) [(−)-Cmpd (B), N-{4-[4-(ethylcarbamoyl-phenyl-methyl)-piperazin-1-yl]-3-fluoro-phenyl}-2-pyridin-3-yl-benzamide], on human Y2 receptor, the Ki was 39.8 nM. The IC50 on MTP is 398 nM.
Turning to `CCN(CC)C(=O)C(c1ccccc1)N1CCN(c2ccc(NC(=O)c3ccccc3-c3cccnc3)cc2F)CC1` (single isomer, unassigned; (+)) [(+)-Cmpd (A), N-{4-[4-(Diethylcarbamoyl-phenyl-methyl)-piperazin-1-yl]-3-fluoro-phenyl}-2-pyridin-3-yl-benzamide], the values for the Ki on human Y2 receptor and on rat Y2 receptor were 7.94 nM and 10 nM, respectively. For the same molecule, the Kb on hY2 is 0.398 nM. The IC50 on MTP was 316 nM.
